Results published in BindingDB's records for doi:10.1016/j.ejmech.2016.06.026 (Czech Academy of Sciences, 2016).

Key:
[1] = Inhibition of reverse transcriptase Y181C mutant in HIV-1 3B infected in human MT4 cells assessed as inhibition of viral replication after 5 days by cell titer glo based luciferase reporter gene assay
[2] = Inhibition of HIV-1 3B reverse transcriptase K103N mutant infected in human MT4 cells assessed as inhibition of viral replication after 5 days by cell titer glo based luciferase reporter gene assay

Compound: COc1cc(F)c(C(=O)c2ccnc(Nc3ccc(C#N)cc3)n2)c(F)c1
- EC50 [1]: > 500 nM
- EC50 [2]: 347 nM
